Paper PMC7025647, “Identifying the Naphthalene-Based Compound 3,5-Dihydroxy 2-Napthoic Acid as a Novel Lead Compound for Designing Lactate Dehydrogenase-Specific Antibabesial Drug” (Frontiers in Pharmacology, 2020)
“And” between values parts separate entries of the source, which are not always exact repeats. Identical values can stand only once. Like-named read-outs stand apart in the source and are kept apart here. Blank lines part the entries; values can stand above or below the compound they belong to.

Assays:
rBmLDH = rBmLDH (Babesia microti, UniProt I7J7V6); assay: Surface plasmon resonance binding kinetics (Biacore T200); settings: for koff: read-out: k d
Chain of rBmLDH (I7J7V6 entry or part of it): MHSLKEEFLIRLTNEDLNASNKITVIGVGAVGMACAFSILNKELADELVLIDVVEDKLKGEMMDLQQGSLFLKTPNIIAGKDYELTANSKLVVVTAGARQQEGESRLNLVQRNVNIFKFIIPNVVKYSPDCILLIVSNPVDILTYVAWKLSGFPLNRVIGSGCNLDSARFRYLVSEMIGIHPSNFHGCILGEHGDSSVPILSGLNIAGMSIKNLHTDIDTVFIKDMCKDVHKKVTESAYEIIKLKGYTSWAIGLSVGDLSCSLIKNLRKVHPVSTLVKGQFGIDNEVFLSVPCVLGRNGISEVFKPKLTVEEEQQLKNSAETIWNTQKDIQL
Experimental: The binding properties of the rBmLDH against DBHCA and DHNA were measured separately by SPR experiment with a Biacore T200 system (GE Healthcare, Uppsala, Sweden). Briefly, a sensor chip CM5 was put into a Biacore T200 system and washed with the running buffer (PBST+0.5% DMSO, pH7.5). The CM5 chip was activated by injecting the mixture of 0.1 M N-hydroxysuccinimide (NHS) and 0.4 M 1-ethyl-3-(3-dimethylaminopropyl) carbodiimide hydrochloride (EDC) (1:1, v/v) at a flow rate of 10 μl·min^−1 for 20 min. Then, the rBmLDH diluted to 10 μg·ml^−1 with 10 mM sodium acetate buffer (pH 4.0, 4.5, 5.0, and 5.5) was covalently immobilized on the CM5 chip at a flow rate of 10 μl·min^−1 until the immobilization level of BmLDH reached 2,100 resonance units (RU). Ethanolamine solution was injected to block the remaining unreacted esters. Flow cell 1 was activated and blocked as the reference surface, while flow cell 2 served as the experimental surface. The 100 mM stocks of the two small molecule compounds were further diluted with PBST into 500, 250, 125, 62.5, 31.25, and 15.625 μM. The surface of CM5 sensor chip was fully regenerated using 10 mM glycine pH2.5 at a flow rate of 30 μl min^−1 for 30 s. The SPR kinetic experiments were performed three times and the values were presented as the mean ± SD of three independent experiments.
For binding kinetic assays, standard solutions of two naphthalene-based compounds (DBHCA and DHNA) at different concentrations were tested and the data were fitted with a 1:1 binding kinetic model.

[1] = biological target: recombinant BmLDH (rBmLDH) (Babesia microti, UniProt I7J7V6); assay: biochemical; format: biochemical; settings: for selectivity over human LDH: rBmLDH vs human LDH
Chain of recombinant BmLDH (rBmLDH) (I7J7V6 entry or part of it): as above
Experimental: The enzyme activity of rBmLDH was analyzed using Lactate Dehydrogenase Activity Assay Kit (Sigma-Aldrich, Shanghai, China) according to the manufacturer’s instruction. Briefly, the enzymatic activity of BmLDH was detected by catalyzing the conversion of lactate to pyruvate, with concomitant reduction of NAD^+ to NADH. The coupled reaction was followed by measuring absorbance at 450 nm and at 37°C. Three naphthalene-based compounds [2,6-naphthalenedicarboxylic acid (NDCA), 1,6-dibromo-2-hydroxynapthalene 3-carboxylic acid (DBHCA), and 3,5-dihydroxy 2-napthoic acid (DHNA)] were purchased from Sigma-Aldrich (Shanghai, China) with 99% purity for NDCA and 97% purity for DBHCA and DHNA. In the inhibitory analysis, three naphthalene-based compounds were prepared as 100 mM stock solution in 100% dimethylsulfoxide (DMSO) ( Table 2 ).
The half-maximal inhibitory concentration (IC50) values were determined in the presence of various concentrations of the three naphthalene-based compounds. […] The absorbance Tinitia and Tfinal (5 min) was measured at 450 nm. XY graphs were drawn by linear regression and error bars represent means ± SD of three independent experiments.

[2] = Cytotoxicity test by MTT method; format: cell-based, African green monkey; settings: African green monkey, Vero cells (ATCC-CCL-81), MTT, 72 h
Experimental: (§1) Mycoplasma-free Vero cell line (ATCC-CCL-81, immortalized cells) was preserved in liquid nitrogen with the additive of DMSO in the State Key Laboratory of Agricultural Microbiology, Huazhong Agricultural University, China. […] After adding 10 µl MTT (5 mg/ml in medium) into each test well, the plate was further incubated for another 2 h, followed by removing the culture from the incubator and discarding the medium. […] The plate was gently mixed on a gyratory shaker for 10 min and the absorbances were measured at a wavelength of 570 nm using a microplate reader (BioTek, Vermont, USA). The background absorbances of the multi-well plate at 690 nm were subtracted from the 570 nm measurement. […] The CC50 values were calculated using GraphPad Prism 5 (San Diego, CA, USA), and all the cytotoxicity tests were performed three times.

Vero cells = assay: Cytotoxicity test by MTT method; format: cell-based, African green monkey; settings: for SI (selectivity index): between B. microti and Vero cells
Experimental: as §1

[3] = test system: B. microti ATCC PRA-99 strain; assay: Growth inhibition of B. microti in vitro; format: cell-based, Babesia microti; settings: for IC50: Babesia microti
Experimental: (§2) Three BALB/c mice were intraperitoneally injected with 1 x 10^7 parasites (100 μl fresh blood), and their blood was collected from the tail when parasitemia reached ~60% at day 7 post-infection. The growth inhibition assay of B. microti in vitro was performed by incubating freshly isolated infected mouse red blood cells (RBCs) with varying concentrations of the drugs. Briefly, […] infected mouse RBCs was diluted with 5 μl non-infected mouse RBCs and 10 μl non-infected human RBCs to achieve ~3% parasitemia in a total of 40 μl and suspended in 110 μl of a growth medium (20% bovine serum and 80% medium HL20) containing the indicated concentrations of drugs (50, 100, and 250 μM). The cultures were maintained at 37°C for 72 h in a gas mixture of 2% O2, 5% CO2, and 93% N2. Two naphthalene-based compounds DBHCA and DHNA were prepared as 100 mM stock solutions in DMSO and further diluted with growth medium. Each concentration of the compounds was tested in triplicate, while three wells received a drug-free culture medium as a control. 10 μM diminazene aceturate (DA) was selected as a positive control. Parasitemia was determined at 72 h post-treatment by enumerating a total of at least 1,000 RBCs in a Giemsa-stained thin smear. Differences in the percent parasitemia were statistically analyzed using one-way ANOVA analysis, and the IC50 values were calculated manually for obtaining more reliable data (Käber method). The hemolysis of DBHCA and DHNA against B. microti-free erythrocytes was monitored by cell counting chamber at 72 h post-treatment. All the experiments were separately repeated three times.

[4] = test system: Plasmodium falciparum lactate dehydrogenase (PfLDH); settings: 2005, cited from earlier work; for IC50: ref Conners et al.
[5] = test system: B. microti-free erythrocytes; assay: Hemolysis of B. microti-free erythrocytes; format: cell-based; settings: drug levels up to 250 µM, 72 h post-treatment
Experimental: as §2, with “Each concentration of the compounds was tested in triplicate, while three wells received a drug-free culture medium as a control. 10 μM diminazene aceturate (DA) was selected as a positive control.” left out, “All the experiments were separately repeated three times.” left out

[6] = biological target: human lactate dehydrogenase (HmLDH); set-up: method as in Conners et al., 2005; settings: ref Conners et al., 2005; cited from earlier work
human LDH-B = test system: human LDH-B; set-up: method as in Deck et al., 1998; Rellinger et al., 2017; settings: even at high concentrations; ref Deck et al., 1998; Rellinger et al., 2017; cited from earlier work
[7] = test system: glyceraldehyde-3-phosphate dehydrogenase; set-up: method as in Deck et al., 1998; Rellinger et al., 2017; settings: even at high concentrations; ref Deck et al., 1998; Rellinger et al., 2017; cited from earlier work
BbLDH = settings: read-out: K i against BbLDH; ref Bork et al., 2004; cited from earlier work
Babesia bovis = test system: Babesia bovis; set-up: method as in Bork et al., 2004; settings: ref Bork et al., 2004; read-out: IC50 in vitro against B. bovis; cited from earlier work
LDH-A4 = settings: mammalian LDHs, competitive with NADH binding; read-out: K i for LDH-A4; cited from earlier work
LDH-C4 = settings: mammalian LDHs, competitive with NADH binding; read-out: K i for LDH-C4; cited from earlier work
BmLDH = biological target: BmLDH; set-up: method as in Yu et al., 2019; settings: ref Yu et al., 2019; read-out: K i against BmLDH; cited from earlier work
B. microti = test system: B. microti; set-up: method as in Yu et al., 2019; settings: ref Yu et al., 2019; read-out: IC50 against B. microti in vitro; cited from earlier work
LDH-B4 = settings: mammalian LDHs, competitive with NADH binding; read-out: K i for LDH-B4; cited from earlier work
Plasmodium falciparum = test system: Plasmodium falciparum; set-up: method as in Vivas et al., 2005; settings: ref Vivas et al., 2005; read-out: IC50 against growth of P. falciparum in vitro; cited from earlier work
[8] = SPR, 1:1 binding model, rBmLDH immobilized on CM5
[9] = rBmLDH 100 ng, lactate to pyruvate, absorbance 450 nm, 37°C, read-out: BmLDH IC50
[10] = 72 h post-treatment, Giemsa smear parasitemia, read-out: IC50 against growth of B. microti in vitro
[11] = asexual blood stage, 72 h, read-out: PRA-99 IC50

k a (rBmLDH; [8]): 20.49 1/Ms and 20.49 ± 4.18 × 10^−1 1/Ms
Kd (rBmLDH; SPR, 1:1 binding model, rBmLDH immobilized on CM5, read-out: K D): 37.7 µM
koff (rBmLDH; [8]): 0.000772 s⁻¹
inhibition at 60 µM ([1]; at ~60 μM, read-out: rBmLDH activity inhibited): 100%
IC50 [1, 9]: 30 µM
selectivity over PfLDH ([1]; rBmLDH vs PfLDH): ~ 57 fold
selectivity over human LDH [1]: ~ 5,000 fold
IC50 ([1]; rBmLDH, mean ± SD of three experiments, read-out: IC50 against BmLDH activity): 30.2 ± 8.49 µM
IC50 [3, 10]: 85.7 µM
IC50 [3, 11]: 86 µM
Structure (SMILES): O=C(O)c1cc2cccc(O)c2cc1O [DHNA, 3,5-Dihydroxy 2-napthoic acid]
CC50 at 72 h ([2]; read-out: CC50 Vero): 1900 µM
SI (selectivity index) (Vero cells): 22.1
IC50 [4]: 1700 µM
cellular hemolysis [5]: no cellular hemolysis

Structure (SMILES): O=C(O)c1cc2cc(Br)ccc2c(Br)c1O [DBHCA, 1,6-Dibromo-2-hydroxynapthalene 3-carboxylic acid]
Kd (rBmLDH): 0.0399 µM
kon (rBmLDH; SPR, 1:1 binding model, rBmLDH immobilized on CM5, read-out: k a): 37700 M⁻¹ s⁻¹
koff (rBmLDH; [8]): 0.0015 s⁻¹
IC50 ([1]; BmLDH IC50, rBmLDH 100 ng, lactate to pyruvate, absorbance 450 nm, 37°C): 54 µM
IC50 ([1]; IC50 against BmLDH activity, rBmLDH, mean ± SD of three experiments): 53.9 ± 13.3 µM
selectivity over human LDH [1]: ~ 109 fold
CC50 at 72 h ([2]; read-out: CC50 Vero): 217 µM
CC50 at 72 h ([2]; read-out: CC50 in Vero cells): 216 ± 18 µM
SI (selectivity index) (Vero cells): 2.6
IC50 [3, 10]: 84.8 µM
IC50 [3, 11]: 85 µM
IC50 [4]: 310 µM
cellular hemolysis [5]: no cellular hemolysis
IC50 [6]: 5900 µM

Structure (SMILES): CCCc1c(O)c(O)c(C(=O)O)c2cc(Cc3ccccc3)c(C)cc12 [FX11]
inhibition of human LDH-B (human LDH-B): not
inhibition of glyceraldehyde-3-phosphate dehydrogenase [7]: not

Structure (SMILES): Cc1cc2c(C(C)C)c(O)c(O)c(C=O)c2c(O)c1-c1c(C)cc2c(C(C)C)c(O)c(O)c(C=O)c2c1O [gossypol]
Ki (BbLDH): 0.085 µM
IC50 (Babesia bovis): 50 µM
inhibition at 0.7 µM ([1]; read-out: inhibition of the catalytic activity of BmLDH): ~100%
Ki (LDH-A4): 1.9 µM
Ki (LDH-C4): 4.2 µM
Ki ([4]; competitive, ref Vivas et al., read-out: K i against PfLDH): 0.7 µM
Ki (BmLDH): 0.67 µM
IC50 (B. microti): 7.07 µM
Ki (LDH-B4): 1.4 µM
IC50 (Plasmodium falciparum): 15.3 µM

Structure (SMILES): CC(=O)NCC(=O)O.CC(=O)NCC(=O)O.N=C(N)c1ccc(N=NNc2ccc(C(=N)N)cc2)cc1 [DA, diminazene aceturate, reference compound]
inhibition of growth of the parasite ([3]; positive control at 10 μM, 72 h): ~ 75.54%

Structure (SMILES): COc1cccc2c1C(=O)c1c(O)c3c(c(O)c1C2=O)C[C@@](O)(C(=O)CO)C[C@@H]3O[C@H]1C[C@H](N)[C@H](O)[C@H](C)O1 [doxorubicin, reference compound]
inhibition at 3 µM (Vero cells; Chlorocebus sabaeus, Vero, positive control at 3 µM, read-out: inhibition of growth of Vero cells): ~95%

inhibitory effect on the BmLDH activity ([1]; even at the high concentration of 500 μM): no inhibitory effect
IC50 [1, 9]: > 500 µM
Structure (SMILES): O=C(O)c1ccc2cc(C(=O)O)ccc2c1 [NDCA, 2,6-Naphthalenedicarboxylic acid]
IC50 [4]: 5100 µM
IC50 [6]: 1400 µM
